Experimental data: paper PMC6199309, “A therapeutic approach to pantothenate kinase associated neurodegeneration” (Nature Communications, 2018)

Key:
[1] = target: T1, ABL1(H396P)-phosphorylated (Homo sapiens, UniProt P00519, H396P); assay: KINOMEscan; format: binding; details: read-out: %Ctrl @ 10000nM
T1 construct: purchased DiscoverX KINOMEscan

BLK = target: T2, BLK (Homo sapiens, UniProt P51451); assay: KINOMEscan; format: binding; details: read-out: %Ctrl @ 10000nM
T2 construct: purchased DiscoverX KINOMEscan

CAMK1G = target: T3, CAMK1G (Homo sapiens, UniProt Q96NX5); assay: KINOMEscan; format: binding; details: read-out: %Ctrl @ 10000nM
T3 construct: purchased DiscoverX KINOMEscan
T3 sequence (Q96NX5 whole entry): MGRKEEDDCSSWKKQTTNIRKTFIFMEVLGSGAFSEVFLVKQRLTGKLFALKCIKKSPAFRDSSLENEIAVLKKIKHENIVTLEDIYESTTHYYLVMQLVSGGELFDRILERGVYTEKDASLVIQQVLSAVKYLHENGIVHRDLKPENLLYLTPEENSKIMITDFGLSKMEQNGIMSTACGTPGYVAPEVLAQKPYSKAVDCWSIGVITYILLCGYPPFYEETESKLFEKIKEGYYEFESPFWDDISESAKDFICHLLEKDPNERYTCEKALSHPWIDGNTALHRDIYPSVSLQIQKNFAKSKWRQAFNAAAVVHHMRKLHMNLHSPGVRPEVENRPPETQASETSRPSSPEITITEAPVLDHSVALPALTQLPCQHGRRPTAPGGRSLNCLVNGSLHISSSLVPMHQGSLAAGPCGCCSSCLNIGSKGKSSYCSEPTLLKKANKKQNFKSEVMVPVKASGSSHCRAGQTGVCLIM

CDK7 = target: T4, CDK7 (Homo sapiens, UniProt P50613); assay: KINOMEscan; format: binding; details: read-out: %Ctrl @ 10000nM
T4 construct: purchased DiscoverX KINOMEscan
T4 sequence (P50613 whole entry): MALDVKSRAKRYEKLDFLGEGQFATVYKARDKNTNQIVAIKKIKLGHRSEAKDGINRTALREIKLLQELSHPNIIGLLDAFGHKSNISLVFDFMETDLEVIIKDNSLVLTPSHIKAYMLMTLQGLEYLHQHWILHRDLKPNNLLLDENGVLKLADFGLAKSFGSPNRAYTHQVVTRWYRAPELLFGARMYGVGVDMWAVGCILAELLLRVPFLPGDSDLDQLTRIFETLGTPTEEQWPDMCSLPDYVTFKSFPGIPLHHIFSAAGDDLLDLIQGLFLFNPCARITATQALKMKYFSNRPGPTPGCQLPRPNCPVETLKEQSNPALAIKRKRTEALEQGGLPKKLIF

CIT = target: T5, CIT (Homo sapiens, UniProt O14578); assay: KINOMEscan; format: binding; details: read-out: %Ctrl @ 10000nM
T5 construct: purchased DiscoverX KINOMEscan

DAPK2 = target: T6, DAPK2 (Homo sapiens, UniProt Q9UIK4); assay: KINOMEscan; format: binding; details: read-out: %Ctrl @ 10000nM
T6 construct: purchased DiscoverX KINOMEscan

DCAMKL2 = target: T7, DCAMKL2 (Homo sapiens, UniProt Q8N568); assay: KINOMEscan; format: binding; details: read-out: %Ctrl @ 10000nM
T7 construct: purchased DiscoverX KINOMEscan

DLK = target: T8, DLK (Homo sapiens, UniProt Q12852); assay: KINOMEscan; format: binding; details: read-out: %Ctrl @ 10000nM
T8 construct: purchased DiscoverX KINOMEscan

ERK4 = target: T9, ERK4 (Homo sapiens, UniProt P31152); assay: KINOMEscan; format: binding; details: read-out: %Ctrl @ 10000nM
T9 construct: purchased DiscoverX KINOMEscan

FLT3(ITD) = format: binding, human
HIPK1 = target: T10, HIPK1 (Homo sapiens, UniProt Q86Z02); assay: KINOMEscan; format: binding; details: read-out: %Ctrl @ 10000nM
T10 construct: purchased DiscoverX KINOMEscan

KIT(D816H) = target: T11, KIT(D816H) (Homo sapiens, UniProt P10721, D816H); assay: KINOMEscan; format: binding; details: read-out: %Ctrl @ 10000nM
T11 construct: purchased DiscoverX KINOMEscan

KIT(L576P) = target: T12, KIT(L576P) (Homo sapiens, UniProt P10721, L576P); assay: KINOMEscan; format: binding; details: read-out: %Ctrl @ 10000nM
T12 construct: purchased DiscoverX KINOMEscan

LYN = target: T13, LYN (Homo sapiens, UniProt P07948); assay: KINOMEscan; format: binding; details: read-out: %Ctrl @ 10000nM
T13 construct: purchased DiscoverX KINOMEscan

MAP3K4 = target: T14, MAP3K4 (Homo sapiens, UniProt Q9Y6R4); assay: KINOMEscan; format: binding; details: read-out: %Ctrl @ 10000nM
T14 construct: purchased DiscoverX KINOMEscan

MAP4K4 = target: T15, MAP4K4 (Homo sapiens, UniProt O95819); assay: KINOMEscan; format: binding; details: read-out: %Ctrl @ 10000nM
T15 construct: purchased DiscoverX KINOMEscan

MAPKAPK5 = target: T16, MAPKAPK5 (Homo sapiens, UniProt Q8IW41); assay: KINOMEscan; format: binding; details: read-out: %Ctrl @ 10000nM
T16 construct: purchased DiscoverX KINOMEscan

MLK3 = target: T17, MLK3 (Homo sapiens, UniProt Q16584); assay: KINOMEscan; format: binding; details: read-out: %Ctrl @ 10000nM
T17 construct: purchased DiscoverX KINOMEscan

PAK7 = target: T18, PAK7 (Homo sapiens, UniProt Q9P286); assay: KINOMEscan; format: binding; details: read-out: %Ctrl @ 10000nM
T18 construct: purchased DiscoverX KINOMEscan
T18 sequence (Q9P286 whole entry): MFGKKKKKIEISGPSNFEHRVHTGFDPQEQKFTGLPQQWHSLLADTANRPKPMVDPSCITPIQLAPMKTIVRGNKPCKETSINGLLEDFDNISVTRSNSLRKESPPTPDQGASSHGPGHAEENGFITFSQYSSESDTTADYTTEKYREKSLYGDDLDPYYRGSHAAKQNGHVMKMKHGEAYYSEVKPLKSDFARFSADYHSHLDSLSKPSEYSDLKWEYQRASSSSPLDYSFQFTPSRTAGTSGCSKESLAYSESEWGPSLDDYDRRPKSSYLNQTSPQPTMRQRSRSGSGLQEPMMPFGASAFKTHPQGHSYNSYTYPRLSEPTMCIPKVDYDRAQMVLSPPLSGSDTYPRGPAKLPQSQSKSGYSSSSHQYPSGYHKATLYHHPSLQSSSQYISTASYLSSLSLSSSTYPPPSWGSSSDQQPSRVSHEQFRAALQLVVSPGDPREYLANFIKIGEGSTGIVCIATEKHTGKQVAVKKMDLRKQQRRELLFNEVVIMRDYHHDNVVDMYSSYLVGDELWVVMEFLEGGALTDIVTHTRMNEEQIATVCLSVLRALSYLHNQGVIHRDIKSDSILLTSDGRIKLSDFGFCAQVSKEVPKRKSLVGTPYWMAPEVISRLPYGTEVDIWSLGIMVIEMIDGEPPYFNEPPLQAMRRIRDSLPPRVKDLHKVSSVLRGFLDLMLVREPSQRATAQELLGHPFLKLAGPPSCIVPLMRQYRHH

PHKG2 = target: T19, PHKG2 (Homo sapiens, UniProt P15735); assay: KINOMEscan; format: binding; details: read-out: %Ctrl @ 10000nM
T19 construct: purchased DiscoverX KINOMEscan
T19 sequence (P15735 whole entry): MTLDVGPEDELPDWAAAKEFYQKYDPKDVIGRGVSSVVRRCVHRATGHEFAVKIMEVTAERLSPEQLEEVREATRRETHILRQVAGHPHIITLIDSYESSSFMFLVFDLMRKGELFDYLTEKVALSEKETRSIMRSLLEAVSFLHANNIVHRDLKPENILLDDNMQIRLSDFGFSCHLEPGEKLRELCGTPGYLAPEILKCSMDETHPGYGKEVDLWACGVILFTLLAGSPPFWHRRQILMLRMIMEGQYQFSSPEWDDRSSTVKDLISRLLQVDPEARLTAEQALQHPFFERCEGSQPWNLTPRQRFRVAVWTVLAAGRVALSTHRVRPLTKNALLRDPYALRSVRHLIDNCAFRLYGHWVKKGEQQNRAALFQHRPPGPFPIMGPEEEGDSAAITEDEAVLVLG

[2] = target: T20, RPS6KA4(Kin.Dom.2-C-terminal) (Homo sapiens, UniProt O75676); assay: KINOMEscan; format: binding; details: read-out: %Ctrl @ 10000nM
T20 construct: RPS6KA4(Kin.Dom.2-C-terminal); purchased DiscoverX KINOMEscan
T20 sequence (O75676 372-772 limits assumed): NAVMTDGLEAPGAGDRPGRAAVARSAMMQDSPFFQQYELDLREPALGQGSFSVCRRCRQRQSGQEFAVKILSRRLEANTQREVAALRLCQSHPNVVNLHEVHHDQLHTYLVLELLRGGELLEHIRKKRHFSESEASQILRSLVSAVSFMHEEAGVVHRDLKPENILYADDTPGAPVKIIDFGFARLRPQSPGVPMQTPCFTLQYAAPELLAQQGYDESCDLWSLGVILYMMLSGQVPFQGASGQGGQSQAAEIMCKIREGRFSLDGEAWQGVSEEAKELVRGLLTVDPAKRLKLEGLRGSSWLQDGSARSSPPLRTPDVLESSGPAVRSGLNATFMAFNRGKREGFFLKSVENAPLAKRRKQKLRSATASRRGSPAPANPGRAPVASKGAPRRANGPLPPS

[3] = target: T21, RPS6KA5(Kin.Dom.2-C-terminal) (Homo sapiens, UniProt O75582); assay: KINOMEscan; format: binding; details: read-out: %Ctrl @ 10000nM
T21 construct: RPS6KA5(Kin.Dom.2-C-terminal); purchased DiscoverX KINOMEscan

[4] = target: T22, RSK3(Kin.Dom.1-N-terminal) (Homo sapiens, UniProt Q15349); assay: KINOMEscan; format: binding; details: read-out: %Ctrl @ 10000nM
T22 construct: RSK3(Kin.Dom.1-N-terminal); purchased DiscoverX KINOMEscan

SBK1 = target: T23, SBK1 (Homo sapiens, UniProt Q52WX2); assay: KINOMEscan; format: binding; details: read-out: %Ctrl @ 10000nM
T23 construct: purchased DiscoverX KINOMEscan
T23 sequence (Q52WX2 whole entry): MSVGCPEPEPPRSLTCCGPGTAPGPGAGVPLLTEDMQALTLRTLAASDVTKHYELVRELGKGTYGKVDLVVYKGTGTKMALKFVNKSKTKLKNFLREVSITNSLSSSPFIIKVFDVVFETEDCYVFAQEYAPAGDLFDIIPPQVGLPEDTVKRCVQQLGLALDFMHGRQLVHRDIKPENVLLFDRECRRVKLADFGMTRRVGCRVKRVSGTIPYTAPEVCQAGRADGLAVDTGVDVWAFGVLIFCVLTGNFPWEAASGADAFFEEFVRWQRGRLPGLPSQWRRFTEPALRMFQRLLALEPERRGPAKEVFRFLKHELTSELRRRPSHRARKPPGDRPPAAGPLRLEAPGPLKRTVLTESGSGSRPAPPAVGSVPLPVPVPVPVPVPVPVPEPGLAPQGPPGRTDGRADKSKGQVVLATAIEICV

SGK = target: T24, SGK (Homo sapiens, UniProt O00141); assay: KINOMEscan; format: binding; details: read-out: %Ctrl @ 10000nM
T24 construct: purchased DiscoverX KINOMEscan
T24 sequence (O00141 whole entry): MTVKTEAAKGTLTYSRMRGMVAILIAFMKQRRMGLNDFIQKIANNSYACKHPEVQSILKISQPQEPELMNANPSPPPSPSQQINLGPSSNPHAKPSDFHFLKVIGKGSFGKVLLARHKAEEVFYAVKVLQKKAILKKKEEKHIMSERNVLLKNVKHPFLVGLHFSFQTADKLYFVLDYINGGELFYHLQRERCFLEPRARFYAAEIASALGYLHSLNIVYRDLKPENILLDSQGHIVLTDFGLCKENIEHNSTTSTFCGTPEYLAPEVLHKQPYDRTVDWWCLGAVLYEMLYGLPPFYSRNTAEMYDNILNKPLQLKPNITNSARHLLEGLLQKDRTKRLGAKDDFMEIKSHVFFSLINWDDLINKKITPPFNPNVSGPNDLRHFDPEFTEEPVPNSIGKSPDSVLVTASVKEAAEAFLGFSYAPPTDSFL

SIK2 = target: T25, SIK2 (Homo sapiens, UniProt Q9H0K1); assay: KINOMEscan; format: binding; details: read-out: %Ctrl @ 10000nM
T25 construct: DNA tag for qPCR (T7 phage fusion or DNA label); purchased DiscoverX KdELECT; host or cells: E. coli BL21-derived (T7 phage) or HEK-293
T25 sequence (Q9H0K1 whole entry, the tested form may be a part): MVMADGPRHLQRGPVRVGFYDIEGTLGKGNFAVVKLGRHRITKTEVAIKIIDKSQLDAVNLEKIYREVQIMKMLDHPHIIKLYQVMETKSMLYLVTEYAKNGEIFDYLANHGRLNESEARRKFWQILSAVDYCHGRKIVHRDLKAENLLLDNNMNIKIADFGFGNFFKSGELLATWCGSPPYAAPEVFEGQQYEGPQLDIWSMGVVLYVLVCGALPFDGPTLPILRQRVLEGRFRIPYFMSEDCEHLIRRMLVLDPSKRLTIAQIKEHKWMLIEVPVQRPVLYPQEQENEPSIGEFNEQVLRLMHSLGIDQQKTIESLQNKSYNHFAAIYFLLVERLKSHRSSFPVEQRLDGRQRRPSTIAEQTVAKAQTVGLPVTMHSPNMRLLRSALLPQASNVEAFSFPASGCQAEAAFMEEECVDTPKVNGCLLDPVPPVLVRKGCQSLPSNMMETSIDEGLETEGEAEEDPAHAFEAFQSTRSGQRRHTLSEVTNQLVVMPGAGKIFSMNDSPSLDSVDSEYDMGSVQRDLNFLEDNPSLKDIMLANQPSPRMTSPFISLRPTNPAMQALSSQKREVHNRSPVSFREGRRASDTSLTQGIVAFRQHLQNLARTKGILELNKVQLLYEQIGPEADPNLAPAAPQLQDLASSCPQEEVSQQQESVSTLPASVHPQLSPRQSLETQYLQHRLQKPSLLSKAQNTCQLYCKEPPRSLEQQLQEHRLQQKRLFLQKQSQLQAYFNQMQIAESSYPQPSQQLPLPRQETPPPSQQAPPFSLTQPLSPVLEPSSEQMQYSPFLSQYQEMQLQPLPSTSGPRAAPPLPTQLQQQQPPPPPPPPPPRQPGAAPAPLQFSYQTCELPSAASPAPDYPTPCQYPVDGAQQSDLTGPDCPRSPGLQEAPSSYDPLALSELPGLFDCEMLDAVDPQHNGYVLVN

SLK = target: T26, SLK (Homo sapiens, UniProt Q9H2G2); assay: KINOMEscan; format: binding; details: read-out: %Ctrl @ 10000nM
T26 construct: purchased DiscoverX KINOMEscan

VPS34 = target: T27, VPS34 (Homo sapiens, UniProt Q8NEB9); assay: KINOMEscan; format: binding; details: read-out: %Ctrl @ 10000nM
T27 construct: DNA label for qPCR (T7 phage fusion or DNA tag); purchased DiscoverX scanMAX; host or cells: E. coli BL21-derived (T7 phage) or HEK-293
T27 sequence (Q8NEB9 whole entry, the tested form may be a part): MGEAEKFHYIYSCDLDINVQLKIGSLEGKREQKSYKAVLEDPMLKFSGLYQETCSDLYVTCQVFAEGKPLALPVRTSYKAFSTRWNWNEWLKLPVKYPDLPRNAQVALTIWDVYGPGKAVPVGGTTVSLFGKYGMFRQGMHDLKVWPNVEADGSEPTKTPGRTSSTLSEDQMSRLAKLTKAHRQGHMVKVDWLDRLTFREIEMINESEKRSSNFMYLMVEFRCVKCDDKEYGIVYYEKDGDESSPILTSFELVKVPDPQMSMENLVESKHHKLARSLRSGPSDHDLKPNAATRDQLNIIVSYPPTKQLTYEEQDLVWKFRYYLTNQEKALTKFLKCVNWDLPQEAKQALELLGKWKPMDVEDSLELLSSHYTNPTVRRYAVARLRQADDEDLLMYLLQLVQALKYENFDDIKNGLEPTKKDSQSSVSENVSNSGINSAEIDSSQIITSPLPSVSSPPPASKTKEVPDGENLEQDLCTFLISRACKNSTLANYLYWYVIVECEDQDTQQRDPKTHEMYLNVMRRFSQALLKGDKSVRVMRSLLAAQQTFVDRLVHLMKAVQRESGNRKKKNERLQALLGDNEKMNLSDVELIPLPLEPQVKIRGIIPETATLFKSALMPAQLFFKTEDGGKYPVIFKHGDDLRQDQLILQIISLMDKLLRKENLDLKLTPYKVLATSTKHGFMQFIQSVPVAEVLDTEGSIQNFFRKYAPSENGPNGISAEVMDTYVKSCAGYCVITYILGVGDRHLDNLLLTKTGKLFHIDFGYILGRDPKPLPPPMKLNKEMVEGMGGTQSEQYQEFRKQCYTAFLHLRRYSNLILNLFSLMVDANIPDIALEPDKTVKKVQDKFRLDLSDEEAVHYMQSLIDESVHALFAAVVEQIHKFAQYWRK

[5] = PZ-2891 levels in plasma, liver and brain tissue; format: in vivo, mouse; details: 225 ppm PZ-2891 in diet, 4 weeks
Procedure: Plasma (20 μl) was added to 100 μl acetonitrile containing 0.6 μM warfarin to a final concentration of 0.5 μM. The samples were incubated on ice for 30 min. Samples were spun at 3500×g for 10 min to pellet debris, and the supernatant was transferred to a glass vial. […] Tissue was homogenized in 2 ml of 80% methanol containing 0.1 μM warfarin, and incubated at −80 °C for 4 h. Samples were spun at 3500×g for 10 min to pellet debris, supernatant was transferred to a glass tube and dried down using a Savant SPD1010 Speed-Vac (Thermo Scientific) overnight. Samples were resuspended in 400 μl of 80% acetonitrile to a final concentration of 0.5 μM and transferred to a glass vial.
Samples (5 μl) were injected onto an XSelect® HSS C18, 2.5 μm, 3.0 × 150 mm column (Waters) using a flow rate of 0.25 ml/min. Solvent A was 0.1% formic acid in water, and Solvent B was acetonitrile + 0.1% formic acid. The HPLC program was the following: starting solvent mixture of 50% B, 0–0.5 min isocratic with 50% B; 0.5–1.5 min linear gradient to 95% B; 1.5–20 min isocratic with 95% B; 20–21 min linear gradient to 50% B; 21–25 min isocratic with 50% B. The QTrap 4500 was operated in the positive mode, and the ion source parameters were: ion spray voltage, 5500 V; curtain gas, 30 psi; temperature, 450 °C; collision gas, medium; ion source gas 1, 30 psi; and ion source gas 2, 40 psi. […]
Supplementary Fig. 11. […]. […]

CC(C)c1ccc(CC(=O)N2CCN(c3ccc(C#N)nn3)CC2)cc1 [PZ-2891, 6-(4-(2-(4-isopropylphenyl)acetyl)piperazin-1-yl)pyridazine-3-carbonitrile]
remaining binding at 10 µM [1]: 76% | remaining binding at 10 µM (BLK): 87% | remaining binding at 10 µM (CAMK1G): 83% | remaining binding at 10 µM (CDK7): 79% | remaining binding at 10 µM (CIT): 97% | remaining binding at 10 µM (DAPK2): 95% | remaining binding at 10 µM (DCAMKL2): 89% | remaining binding at 10 µM (DLK): 100% | remaining binding at 10 µM (ERK4): 97% | %Ctrl @ 10000nM (FLT3(ITD)): 99% | remaining binding at 10 µM (HIPK1): 61% | remaining binding at 10 µM (KIT(D816H)): 66% | remaining binding at 10 µM (KIT(L576P)): 88% | remaining binding at 10 µM (LYN): 79% | remaining binding at 10 µM (MAP3K4): 93% | remaining binding at 10 µM (MAP4K4): 100% | remaining binding at 10 µM (MAPKAPK5): 74% | remaining binding at 10 µM (MLK3): 80% | remaining binding at 10 µM (PAK7): 73% | remaining binding at 10 µM (PHKG2): 100% | remaining binding at 10 µM [2]: 67% | remaining binding at 10 µM [3]: 96% | remaining binding at 10 µM [4]: 72% | remaining binding at 10 µM (SBK1): 62% | remaining binding at 10 µM (SGK): 61% | remaining binding at 10 µM (SIK2): 9.5% | remaining binding at 10 µM (SLK): 93% | remaining binding at 10 µM (VPS34): 80% | PZ-2891 levels in tissues [5]: presence of drug in liver and brain
